Measurements reported in ChEMBL document CHEMBL1201862, “PubChem BioAssay data set” (2004).
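A five-concentration, 48-hour dose response in 96-well plates underlies each endpoint, interpolated linearly between surrounding concentrations. Abbreviation: GI50, concentration required for 50% inhibition of growth.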 Active and inactive are the calls of the source. Rule as the data show it: active = GI50 up to about 1.1 µM and inactive = higher.

Tests used:
Assay in all cases: inhibition of tumour cell growth, NCI panel, 48 h
HCT-15 = tested on: HCT-15
UACC-62 = tested on: UACC-62
SK-MEL-28 = tested on: SK-MEL-28
SNB-75 = tested on: SNB-75
SF-295 = tested on: SF-295
KM12 = tested on: KM12
CCRF-CEM = tested on: CCRF-CEM
DU-145 = tested on: DU-145
U-251 = tested on: U-251
Malme-3M = tested on: Malme-3M
OVCAR-5 = tested on: OVCAR-5
SK-MEL-2 = tested on: SK-MEL-2
SF-539 = tested on: SF-539
MDA-MB-435 = tested on: MDA-MB-435
BT-549 = tested on: BT-549
NCI/ADR-RES = tested on: NCI/ADR-RES
SW-620 = tested on: SW-620
HT-29 = tested on: HT-29
OVCAR-3 = tested on: OVCAR-3
K562 = tested on: K562
HL-60 = tested on: HL-60
786-0 = tested on: 786-0
A498 = tested on: A498
NCI-H226 = tested on: NCI-H226
MDA-MB-231 = tested on: MDA-MB-231
T47D = tested on: T47D
COLO 205 = tested on: COLO 205
PC-3 = tested on: PC-3
SN12C = tested on: SN12C
NCI-H460 = tested on: NCI-H460
LOX IMVI = tested on: LOX IMVI
SK-MEL-5 = tested on: SK-MEL-5
MOLT-4 = tested on: MOLT-4
HOP-62 = tested on: HOP-62
ACHN = tested on: ACHN
RPMI-8226 = tested on: RPMI-8226
IGROV-1 = tested on: IGROV-1
OVCAR-8 = tested on: OVCAR-8
RXF 393 = tested on: RXF 393
EKVX = tested on: EKVX
MDA-N = tested on: MDA-N
UO-31 = tested on: UO-31
OVCAR-4 = tested on: OVCAR-4
Hs-578T = tested on: Hs-578T
UACC-257 = tested on: UACC-257
HCT-116 = tested on: HCT-116
HOP-92 = tested on: HOP-92
HCC 2998 = tested on: HCC 2998
M14 = tested on: M14
SNB-19 = tested on: SNB-19
SF-268 = tested on: SF-268
NCI-H23 = tested on: NCI-H23
MCF7 = tested on: MCF7
SK-OV-3 = tested on: SK-OV-3
TK-10 = tested on: TK-10
A549 = tested on: A549
CAKI-1 = tested on: CAKI-1
NCI-H522 = tested on: NCI-H522

`CCCc1c(Cl)nc(Cl)nc1Cl` was tested, and the GI50 (HCT-15) was 0.327 µM, the GI50 (UACC-62) was 0.822 µM (active) and the GI50 (SK-MEL-28) was 0.336 µM (active). For the same compound, the GI50 (SNB-75) was 9.18 µM (inactive), the GI50 (SF-295) was 4.16 µM (inactive) and the GI50 (KM12) was 3.61 µM (inactive). The GI50 (CCRF-CEM) was 0.0265 µM (active), the GI50 (DU-145) was 5.47 µM (inactive) and the GI50 (U-251) was 1.22 µM (inactive). For the same compound, the GI50 (Malme-3M) was < 0.0208 µM (active), the GI50 (OVCAR-5) was 1.54 µM (inactive) and the GI50 (SK-MEL-2) was 0.352 µM (active). The GI50 (SF-539) was 2.54 µM (inactive), the GI50 (MDA-MB-435) was 0.471 µM (active) and the GI50 (BT-549) was 0.377 µM (active). For the same compound, the GI50 (NCI/ADR-RES) was 0.845 µM (active), the GI50 (SW-620) was 0.16 µM (active) and the GI50 (HT-29) was 0.175 µM (active). The GI50 (OVCAR-3) was 1.01 µM (active), the GI50 (K562) was 0.0723 µM (active) and the GI50 (HL-60) was 0.48 µM (active). For the same compound, the GI50 (786-0) was 0.247 µM (active), the GI50 (A498) was 19.5 µM (inactive) and the GI50 (NCI-H226) was 0.0222 µM (active). The GI50 (MDA-MB-231) was 0.425 µM (active), the GI50 (T47D) was 3.08 µM (inactive) and the GI50 (COLO 205) was 0.252 µM (active). For the same compound, the GI50 (PC-3) was 2.75 µM (inactive), the GI50 (SN12C) was 0.467 µM (active) and the GI50 (NCI-H460) was 1.2 µM (inactive). For the same compound, the GI50 (LOX IMVI) was < 0.01 µM (active), the GI50 (SK-MEL-5) was 0.0594 µM (active) and the GI50 (MOLT-4) was 0.0429 µM (active). For the same compound, the GI50 (HOP-62) was 2.43 µM (inactive), the GI50 (ACHN) was 1.64 µM (inactive) and the GI50 (RPMI-8226) was 0.432 µM (active). For the same compound, the GI50 (IGROV-1) was 0.787 µM (active), the GI50 (OVCAR-8) was 1.05 µM (active) and the GI50 (RXF 393) was 1.09 µM (active). For the same compound, the GI50 (EKVX) was > 10 µM (inactive), the GI50 (MDA-N) was 0.211 µM (active) and the GI50 (UO-31) was 25.4 µM (inactive). For the same compound, the GI50 (OVCAR-4) was 10.2 µM (inactive), the GI50 (Hs-578T) was 3.52 µM (inactive) and the GI50 (UACC-257) was 2.13 µM (inactive). The GI50 (HCT-116) was 0.546 µM (active), the GI50 (HOP-92) was 2.65 µM (inactive) and the GI50 (HCC 2998) was 5.55 µM (inactive). For the same compound, the GI50 (M14) was 0.192 µM (active), the GI50 (SNB-19) was 4.71 µM (inactive) and the GI50 (SF-268) was 1.29 µM (inactive). The GI50 (NCI-H23) was 0.428 µM (active), the GI50 (MCF7) was 1.73 µM (inactive) and the GI50 (SK-OV-3) was > 100 µM (inactive). The GI50 (TK-10) was 3.44 µM (inactive) and the GI50 (A549) was 4.63 µM (inactive).
With `Cc1ccc(/N=N/c2c(O)ccc3ccccc23)c(C)c1` the GI50 (HCT-15) was > 100 µM, the GI50 (UACC-62) was > 100 µM (inactive) and the GI50 (SK-MEL-28) was > 100 µM (inactive). For the same compound, the GI50 (SNB-75) was > 100 µM (inactive), the GI50 (SF-295) was > 100 µM (inactive) and the GI50 (KM12) was > 100 µM (inactive). The GI50 (DU-145) was > 100 µM (inactive), the GI50 (U-251) was > 100 µM (inactive) and the GI50 (OVCAR-5) was > 100 µM (inactive). For the same compound, the GI50 (SK-MEL-2) was > 100 µM (inactive), the GI50 (MDA-MB-435) was > 100 µM (inactive) and the GI50 (BT-549) was > 100 µM (inactive). The GI50 (NCI/ADR-RES) was > 100 µM (inactive), the GI50 (SW-620) was > 100 µM (inactive) and the GI50 (HT-29) was > 100 µM (inactive). The GI50 (OVCAR-3) was > 100 µM (inactive), the GI50 (K562) was > 100 µM (inactive) and the GI50 (CAKI-1) was > 100 µM (inactive). The GI50 (786-0) was > 100 µM (inactive), the GI50 (A498) was > 100 µM (inactive) and the GI50 (NCI-H226) was > 100 µM (inactive). For the same compound, the GI50 (MDA-MB-231) was > 100 µM (inactive), the GI50 (T47D) was > 100 µM (inactive) and the GI50 (COLO 205) was > 100 µM (inactive). The GI50 (PC-3) was > 100 µM (inactive), the GI50 (SN12C) was > 100 µM (inactive) and the GI50 (LOX IMVI) was > 100 µM (inactive). For the same compound, the GI50 (SK-MEL-5) was > 100 µM (inactive), the GI50 (MOLT-4) was > 100 µM (inactive) and the GI50 (HOP-62) was > 100 µM (inactive). The GI50 (RPMI-8226) was > 100 µM (inactive), the GI50 (IGROV-1) was > 100 µM (inactive) and the GI50 (OVCAR-8) was > 100 µM (inactive). The GI50 (RXF 393) was > 100 µM (inactive), the GI50 (MDA-N) was > 100 µM (inactive) and the GI50 (UO-31) was > 100 µM (inactive). The GI50 (OVCAR-4) was > 100 µM (inactive), the GI50 (Hs-578T) was > 100 µM (inactive) and the GI50 (UACC-257) was > 100 µM (inactive). For the same compound, the GI50 (HCT-116) was > 100 µM (inactive), the GI50 (HOP-92) was > 100 µM (inactive) and the GI50 (M14) was > 100 µM (inactive). For the same compound, the GI50 (SNB-19) was > 100 µM (inactive), the GI50 (SF-268) was > 100 µM (inactive) and the GI50 (NCI-H23) was > 100 µM (inactive). The GI50 (SK-OV-3) was > 100 µM (inactive), the GI50 (TK-10) was > 100 µM (inactive) and the GI50 (A549) was > 100 µM (inactive).
For `CCOC(=O)Nc1nn[nH]c1Cl`, the GI50 (HCT-15) was > 100 µM, the GI50 (UACC-62) was > 100 µM (inactive) and the GI50 (SK-MEL-28) was > 100 µM (inactive). For the same compound, the GI50 (SNB-75) was > 100 µM (inactive), the GI50 (KM12) was 63 µM (inactive) and the GI50 (DU-145) was > 100 µM (inactive). For the same compound, the GI50 (U-251) was > 100 µM (inactive), the GI50 (Malme-3M) was > 100 µM (inactive) and the GI50 (OVCAR-5) was > 100 µM (inactive). The GI50 (SK-MEL-2) was > 100 µM (inactive), the GI50 (SF-539) was > 100 µM (inactive) and the GI50 (MDA-MB-435) was > 100 µM (inactive). The GI50 (BT-549) was > 100 µM (inactive), the GI50 (NCI/ADR-RES) was > 100 µM (inactive) and the GI50 (SW-620) was > 100 µM (inactive). For the same compound, the GI50 (HT-29) was > 100 µM (inactive), the GI50 (OVCAR-3) was > 100 µM (inactive) and the GI50 (K562) was > 100 µM (inactive). The GI50 (CAKI-1) was > 100 µM (inactive), the GI50 (786-0) was > 100 µM (inactive) and the GI50 (A498) was > 100 µM (inactive). The GI50 (NCI-H226) was > 100 µM (inactive), the GI50 (MDA-MB-231) was > 100 µM (inactive) and the GI50 (T47D) was > 100 µM (inactive). The GI50 (COLO 205) was > 100 µM (inactive), the GI50 (PC-3) was > 100 µM (inactive) and the GI50 (SN12C) was > 100 µM (inactive). The GI50 (NCI-H460) was > 100 µM (inactive), the GI50 (LOX IMVI) was > 100 µM (inactive) and the GI50 (SK-MEL-5) was > 100 µM (inactive). The GI50 (MOLT-4) was > 100 µM (inactive), the GI50 (HOP-62) was > 100 µM (inactive) and the GI50 (RPMI-8226) was > 100 µM (inactive). For the same compound, the GI50 (IGROV-1) was > 100 µM (inactive), the GI50 (NCI-H522) was > 100 µM (inactive) and the GI50 (OVCAR-8) was > 100 µM (inactive). The GI50 (RXF 393) was > 100 µM (inactive), the GI50 (EKVX) was > 100 µM (inactive) and the GI50 (MDA-N) was > 100 µM (inactive). The GI50 (UO-31) was > 100 µM (inactive), the GI50 (OVCAR-4) was > 100 µM (inactive) and the GI50 (Hs-578T) was > 100 µM (inactive). The GI50 (UACC-257) was > 100 µM (inactive), the GI50 (HCT-116) was > 100 µM (inactive) and the GI50 (HCC 2998) was > 100 µM (inactive). The GI50 (M14) was > 100 µM (inactive), the GI50 (SF-268) was > 100 µM (inactive) and the GI50 (NCI-H23) was > 100 µM (inactive). The GI50 (MCF7) was > 100 µM (inactive), the GI50 (SK-OV-3) was > 100 µM (inactive) and the GI50 (TK-10) was > 100 µM (inactive). The GI50 (A549) was > 100 µM (inactive).
